Laboratory results reported in the supplement of paper PMC10307832.

Tests used:
Experiment in all cases: relative viability (nuclei count vs DMSO), 5 days (fraction); higher = more cells survive
SGI-1776 + Decitabine = compound: CN1CCC(CNc2ccc3ncc(-c4cccc(OC(F)(F)F)c4)n3n2)CC1 [SGI-1776] + Nc1ncn([C@H]2C[C@H](O)[C@@H](CO)O2)c(=O)n1 [Decitabine] (partner 2 µM)
Outline: (§1)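 After 5 days of treatment, lung cancer cells in 1536-well plates were fixed and stained in a single step (final 0.05% Triton X-100, 1% formaldehyde, 1 ug/ml Hoechst) and their nuclei counted on 4× images. Treatment had been applied by pin tool the day after seeding as one drug alone or as a fixed anchor-drug dose with five library-drug doses (not always all listed) in √10 steps. Relative viability is the nuclei count of treated wells divided by that of vehicle wells, and values are medians of duplicate plates.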

SGI-1776 + Vorinostat = compound: CN1CCC(CNc2ccc3ncc(-c4cccc(OC(F)(F)F)c4)n3n2)CC1 [SGI-1776] + O=C(CCCCCCC(=O)Nc1ccccc1)NO [Vorinostat] (partner 1 µM)
Outline: as §1

Entinostat + Vorinostat = compound: Nc1ccccc1NC(=O)c1ccc(CNC(=O)OCc2cccnc2)cc1 [Entinostat] + O=C(CCCCCCC(=O)Nc1ccccc1)NO [Vorinostat] (partner 1 µM)
Outline: as §1

SGI-1776 + Crizotinib = compound: CN1CCC(CNc2ccc3ncc(-c4cccc(OC(F)(F)F)c4)n3n2)CC1 [SGI-1776] + C[C@@H](Oc1cc(-c2cnn(C3CCNCC3)c2)cnc1N)c1c(Cl)ccc(F)c1Cl [Crizotinib] (partner 1 µM)
Outline: as §1

| Cell Line | relative viability (SGI-1776 + Decitabine; first compound 0.08 µM) | relative viability (SGI-1776 + Decitabine; first compound 0.8 µM) | relative viability (SGI-1776 + Decitabine; first compound 2.53 µM) | relative viability (SGI-1776 + Decitabine; first compound 8 µM) | relative viability (SGI-1776 + Vorinostat; first compound 0.08 µM) | relative viability (SGI-1776 + Vorinostat; first compound 0.8 µM) | relative viability (SGI-1776 + Vorinostat; first compound 2.53 µM) | relative viability (SGI-1776 + Vorinostat; first compound 8 µM) | relative viability (Entinostat + Vorinostat; first compound 0.02 µM) | relative viability (Entinostat + Vorinostat; first compound 0.06325 µM) | relative viability (Entinostat + Vorinostat; first compound 0.2 µM) | relative viability (Entinostat + Vorinostat; first compound 0.6325 µM) | relative viability (Entinostat + Vorinostat; first compound 2 µM) | relative viability (SGI-1776 + Crizotinib; first compound 0.08 µM) | relative viability (SGI-1776 + Crizotinib; first compound 0.8 µM) | relative viability (SGI-1776 + Crizotinib; first compound 2.53 µM) | relative viability (SGI-1776 + Crizotinib; first compound 8 µM) |
| --- | --- | --- | --- | --- | --- | --- | --- | --- | --- | --- | --- | --- | --- | --- | --- | --- | --- |
| LCLC-103H | 0.738 | 0.656 | 0.762 | 0.69 | 0.839 | 0.862 | 0.832 | 0.652 | 0.804 | 0.806 | 0.703 | 0.482 | 0.447 | 1.03 | 1.04 | 1.03 | 0.958 |
| ABC-1 | 1.08 | 1.09 | 0.909 | 0.954 | 1.02 | 1.14 | 1.01 | 0.702 | 1.34 | 1.35 | 0.854 | 0.759 | 0.511 | 0.989 | 1.17 | 0.707 | 0.317 |
| NCI-H650 | 0.337 | 0.32 | 0.341 | 0.313 | 0.536 | 0.453 | 0.477 | 0.376 | 0.45 | 0.469 | 0.35 | 0.367 | 0.181 | 0.764 | 0.704 | 0.382 | 0.37 |
| EPLC-272H | 0.371 | 0.365 | 0.395 | 0.322 | 0.468 | 0.505 | 0.545 | 0.249 | 0.483 | 0.397 | 0.33 | 0.236 | 0.139 | 0.832 | 0.891 | 0.909 | 0.772 |
| EKVX | 0.291 | 0.397 | 0.355 | 0.305 | 0.854 | 0.778 | 0.717 | 0.829 | 0.801 | 0.654 | 0.65 | 0.467 | 0.42 | 0.847 | 1.01 | 0.977 | 0.882 |
| NCI-H1666 | 0.8 | 0.737 | 0.729 | 0.663 | 0.999 | 0.971 | 0.957 | 1.01 | 1.05 | 0.979 | 0.934 | 0.835 | 0.601 | 1.08 | 0.934 | 0.803 | 0.668 |
| HCC-15 | 0.593 | 0.692 | 0.593 | 0.414 | 0.856 | 0.853 | 0.726 | 0.722 | 0.81 | 0.807 | 0.636 | 0.51 | 0.266 | 0.819 | 0.816 | 0.761 | 0.764 |
| LCLC-97TM1 | 0.234 | 0.206 | 0.26 | 0.236 | 0.777 | 0.842 | 0.79 | 0.727 | 0.65 | 0.742 | 0.588 | 0.398 | 0.161 | 0.383 | 0.384 | 0.342 | 0.198 |
| NCI-H2347 | 0.631 | 0.673 | 0.639 | 0.577 | 0.598 | 0.622 | 0.588 | 0.496 | 0.368 | 0.643 | 0.528 | 0.303 | 0.264 | 0.687 | 0.637 | 0.772 | 0.511 |
| NCI-H1915 | 0.271 | 0.258 | 0.268 | 0.221 | 0.51 | 0.555 | 0.492 | 0.449 | 0.488 | 0.499 | 0.481 | 0.356 | 0.152 | 0.945 | 0.864 | 0.833 | 0.918 |
| NCI-H647 | 0.409 | 0.392 | 0.44 | 0.339 | 0.539 | 0.61 | 0.604 | 0.322 | 0.513 | 0.577 | 0.345 | 0.209 | 0.0916 | 1.16 | 0.842 | 0.992 | 0.291 |
| NCI-H1650 | 0.456 | 0.388 | 0.473 | 0.342 | 0.848 | 0.621 | 0.521 | 0.423 | 0.794 | 0.747 | 0.571 | 0.438 | 0.264 | 0.86 | 0.999 | 0.559 | 0.231 |
| NCI-H520 | 0.46 | 0.523 | 0.511 | 0.414 | 0.711 | 0.779 | 0.797 | 0.561 | 0.634 | 0.732 | 0.764 | 0.491 | 0.306 | 0.773 | 0.828 | 0.728 | 0.473 |
| HCC-366 | 0.335 | 0.382 | 0.373 | 0.316 | 0.462 | 0.418 | 0.392 | 0.266 | 0.338 | 0.239 | 0.209 | 0.0651 | 0.0386 | 0.549 | 0.557 | 0.393 | 0.098 |
| NCI-H2087 | 0.331 | 0.26 | 0.278 | 0.215 | 0.927 | 0.783 | 0.443 | 0.773 | 1.07 | 0.407 | 0.697 | 0.451 | 0.157 | 0.724 | 0.907 | 1.19 | 0.758 |
| PC-3 [JPC-3] | 0.816 | 0.824 | 0.786 | 0.71 | 0.853 | 1.04 | 0.756 | 0.421 | 1.15 | 0.911 | 0.597 | 0.525 | 0.36 | 0.978 | 1.05 | 0.981 | 0.904 |
| HOP-62 | 0.214 | 0.221 | 0.214 | 0.242 | 0.765 | 0.67 | 0.648 | 0.544 | 0.565 | 0.534 | 0.494 | 0.228 | 0.132 | 0.998 | 0.854 | 0.839 | 0.969 |
